# Experiments:
# [1] = test system: healthy human thyroid cells; test: Toxicity in healthy human thyroid cells (trypan blue staining); format: cell-based; conditions: 72 h
# Procedure: FRTL5 were assayed with MTT, while healthy human thyroid cells by trypan blue staining. The percentage of dead cells, as counted after trypan blue staining, was around 10-15% at the dose of 800 nM of FC86.
# To assess the toxicity FC86 was evaluated against a primary healthy human thyroid cell line at concentrations ranging from 3 nM to 800 nM for 72 h (FIG. 3). Data collected reveal that FC86 is not toxic for healthy human thyroid cells at concentration […] 400 nM. Such a concentration is 20× fold higher than IC50 detected in tumour cell lines.
# [2] = test system: CYP450 (CYP1A2, CYP2C9, CYP2C19, CYP2D6, CYP3A4); test: CYP450 inhibition (ADME-TOX profiling); format: in vitro ADME; conditions: 10 μM
# Procedure: To assess the ADME-TOX profile of selected compounds (FC91, FC86, FC85, a full panel of in vitro assays was performed as reported in Runfola et al. [Runfola M, Sestito S, Gul S, Chiellini G, Rapposelli S: Collecting data through high throughput in vitro early toxicity and off-target liability assays to rapidly identify limitations of novel thyromimetics. Data in brief 2020, 29:105206.]. Cytotoxic effects were evaluated on 4 different cell lines (U2OS, hTERT, HEK293, MCF-7) at 24 h and 48 h after treatment with tested compounds. Cardiac toxicity was assessed evaluating the inhibition effect of compounds on the hERG ion-channel, which is responsible of the withdrawn of several drugs in clinical trials. Metabolic interference was evaluated testing inhibitory effects of new compounds on five isoforms of CYP450 (CYP1A2, CYP2C9, CYP2C19, CYP2D6, CYP3A4). To assess off-target liabilities, the inhibitory effects have been assessed against several well-known off-targets. In particular, HDAC4, HDAC6, HDAC8, HDAC9, and SIRT7 were chosen as representatives of an undesirable epigenetic modulation. Moreover, compounds were screened against phosphodiesterase (PDE4C1), known for its role in cell survival and tumorigenesis. […] The data were collected and analyzed in the form of a traffic-light system using criteria shown below.
# 6647 = test: MTT proliferation assay, Ewing sarcoma; format: cell-based
# Procedure: (§1) The antiproliferative activity was assessed by MTT proliferation assay (Table III) The anticancer activity was also investigated in a rare and lethal cancer (i.e. anaplastic thyroid cancer) by the use of three ATC-derived cell lines (Sw, FRO, 8505c). Again, the IC50 value after 72 h exposure was in the range of 10 to 50 nM. The same trend was also observed in four melanoma cell lines A2058, M14 (genotype BRAFV600E), SKMEL 197 e MEWO (genotype BRAF wild-type).
# (§2) Table III IC50 expressed in μM and Emax (at 30 μM) for FC86 after 72 h exposure, were calculated by MTT assay
# TC-71 = test: MTT proliferation assay, Ewing sarcoma; format: cell-based
# Procedure: as §1, §2
# A673 = test: MTT proliferation assay, Ewing sarcoma; format: cell-based; conditions: Homo sapiens
# Procedure: as §1, §2
# SKNMC = test: MTT proliferation assay, Ewing sarcoma; format: cell-based; conditions: Homo sapiens, SK-N-MC, 72 h exposure
# Procedure: as §1, §2
# TC-32 = test: MTT proliferation assay, Ewing sarcoma; format: cell-based; conditions: Homo sapiens
# Procedure: as §1, §2
# [3] = test system: eight B-cell lymphoma cell lines; test: MTT proliferation assay, panel of eight B-cell lymphoma cell lines; format: cell-based
# Procedure: All the above compounds were tested in vitro for their anticancer activity against a panel of eight B-cell lymphoma cell lines by MTT proliferation assay. The tested cell lines belonging to mantle cell lymphoma (MCL: REC1, Z138), activated B-cell diffuse large B-cell lymphoma (ABC-DLBCL: R11, HBL1, U2932, TMD8), germinal center B-cell diffuse large B-cell lymphoma (GCB-DLBCL: SU-DHL-10, FARAGE) subtypes. In overall, MCL cell lines present Cyclin D1 overexpression, while ABC- and GCB-DLBCL's proliferation is BCR and BCL6/HDACs driven, respectively. At the RNA level, all tested lymphoma cell lines were characterized by an overexpression of 14-3-3 zeta as reported for B-cell lymphomas resistant to chemotherapeutic regimen.
smiles,measurement,setting,value
"Cc1ccc(S(=O)(=O)Nc2ccc3c(c2)/C(=C/c2cccs2)C(=O)N3)cc1 [FC86, N-[(3Z)-2-oxo-3-(thiophene-2-ylmethylidene)-2,3-dihydro-1H-indol-5-yl]-4-methylbenzenesulfonamide]",toxicity for healthy human thyroid cells,[1]; at concentration higher than 400 nM,not toxic
same,percentage of dead cells (trypan blue staining),"[1]; healthy human thyroid cells, 800 nM",10-15%
same,inhibitory effect on CYP450 isoforms,[2],did not show inhibitory effect
same,Emax at 30 µM,"6647; Ewing Sarcoma 6647, 30 μM, 72 h",75%
same,IC50,"6647; Ewing Sarcoma 6647, 72 h exposure",90 nM
same,Emax at 30 µM,"TC-71; Ewing Sarcoma TC-71, 30 μM, 72 h",95%
same,IC50,"TC-71; Ewing Sarcoma TC-71, 72 h exposure",800 nM
same,Emax at 30 µM,"A673; Ewing Sarcoma A673, 30 μM, 72 h",85%
same,IC50,"A673; Ewing Sarcoma A673, 72 h exposure",3200 nM
same,IC50,SKNMC,> 30000 nM
same,Emax at 30 µM,"TC-32; Ewing Sarcoma TC-32, 30 μM, 72 h",75%
same,IC50,"TC-32; Ewing Sarcoma TC-32, 72 h exposure",30 nM
same,IC50,"[3]; B-cell, read-out: IC50 in all eight lymphoma cell lines",< 1000 nM
same,IC50 in eight different lymphoma cell lines,[3]; eight different lymphoma cell lines,nanomolar range
